Assay results: article PMC7112121 (Bioorganic Chemistry, 2019)
Values after ≈ are worked out from the molar mass of the structure shown. Read-outs that look alike come from different tables or passages of the source.

How the values were obtained:
ACV^r-HSV-1 = assay: Antiviral CPE reduction assay, ACVr-HSV-1 in HEL cells; type: cell-based; settings: for EC50: Human alphaherpesvirus 1, HEL, read-out: Antiviral EC50 ACV^r-HSV-1; for Antiviral EC50 ACV^r-HSV-1: HEL cells, CPE by microscopy, mean of two experiments
Vaccinia virus = assay: microbe, parasite or virus in culture; type: cell-based; settings: for EC50: Orthopoxvirus vaccinia, HEL, read-out: Antiviral EC50 Vaccinia virus
HSV-2 = assay: Antiviral CPE reduction assay, HSV-2 in HEL cells; type: cell-based, Herpes simplex virus-2; settings: for EC50: Human alphaherpesvirus 2, HEL, read-out: Antiviral EC50 HSV-2; for Antiviral EC50 HSV-2: HEL cells, CPE by microscopy, mean of two experiments
[1] = tested on: human embryonic lung (HEL) fibroblast cells; settings: minimum cytotoxic concentration
CRFK feline kidney cells = settings: MTS cell viability assay
Reovirus-1 = assay: Antiviral CPE reduction assay, Reovirus-1 in VERO cells; type: cell-based; settings: for Antiviral EC50 Reovirus-1: VERO cells, CPE by microscopy, mean of two experiments; for EC50: Vero, read-out: Antiviral EC50 Reovirus-1
[2] = tested on: Mycobacterium tuberculosis H37Rv; settings: for H37Rv Finding Activity: M. tuberculosis H37Rv, MABA in BACTEC 12B medium
Parainfluenza-3 virus = assay: Antiviral CPE reduction assay, Parainfluenza-3 virus in VERO cells; type: cell-based; settings: for Antiviral EC50 Parainfluenza-3 virus: VERO cells, CPE by microscopy, mean of two experiments; for EC50: Vero, read-out: Antiviral EC50 Parainfluenza-3 virus
Sindbis virus = assay: Antiviral CPE reduction assay, Sindbis virus in VERO cells; type: cell-based; settings: for Antiviral EC50 Sindbis virus: VERO cells, CPE by microscopy, mean of two experiments; for EC50: Sindbis virus, Vero, read-out: Antiviral EC50 Sindbis virus
Punto Toro virus = assay: Antiviral CPE reduction assay, Punto Toro virus in VERO cells; type: cell-based, Punta toro virus; settings: for Antiviral EC50 Punto Toro virus: VERO cells, CPE by microscopy, mean of two experiments; for EC50: Punta Toro virus, Vero, read-out: Antiviral EC50 Punto Toro virus
[3] = tested on: Vesicular stomatitis virus; type: cell-based
HSV-1 = assay: Antiviral CPE reduction assay, HSV-1 in HEL cells; type: cell-based, Herpes simplex virus-1; settings: for Antiviral EC50 HSV-1: HEL cells, CPE by microscopy, mean of two experiments; for EC50: Human alphaherpesvirus 1, HEL, read-out: Antiviral EC50 HSV-1
Coxsackie B4 virus = assay: Antiviral CPE reduction assay, Coxsackie B4 virus in VERO cells; type: cell-based; settings: for Antiviral EC50 Coxsackie B4 virus: CPE by microscopy, mean of two experiments; for EC50: Enterovirus B, B4, Vero, read-out: Antiviral EC50 Coxsackie B4 virus
VERO cells = settings: minimum cytotoxic concentration
DNA virus = assay: Anti-DNA virus activity in HEL cells; type: cell-based
Feline herpesvirus = assay: Antiviral CPE reduction assay, Feline herpesvirus in CRFK cells; type: cell-based; settings: Felid alphaherpesvirus 1, CRFK, read-out: Antiviral EC50 Feline herpesvirus
Feline coronavirus = assay: microbe, parasite or virus in culture; settings: Alphacoronavirus 1, CRFK, read-out: Antiviral EC50 Feline coronavirus
[4] = tested on: Mycobacterium tuberculosis H37Rv; assay: microbe, parasite or virus in culture
[5] = microscopic inspection of cell morphology

Molecule	EC50 (ACV^r-HSV-1)	EC50 (Vaccinia virus)	EC50 (HSV-2)	Cytotoxicity MCC [1, 5]	Cytotoxicity MCC (VERO cells; [5])	EC50 (Reovirus-1)	EC50 (Parainfluenza-3 virus)	EC50 (Sindbis virus)	EC50 (Punto Toro virus)	EC50 (Feline herpesvirus)	EC50 (HSV-1)	EC50 (Coxsackie B4 virus)	EC50 (Feline coronavirus)	further results
Nc1nc2c(ncn2COCCO)c(=O)[nH]1 [Acyclovir, reference compound]	≥ 112 µM	> 250 µM	0.5 µM											
O=c1[nH]c(=O)n([C@H]2C[C@H](O)[C@@H](CO)O2)cc1/C=C/Br [Brivudine, reference compound]			50 µM											Cytotoxicity MCC ([1]; reference in µM): >250 µM
Nc1ccn(C[C@@H](CO)OCP(=O)(O)O)c(=O)n1 [Cidofovir, reference compound]														Cytotoxicity MCC ([1]; reference in µM): >250 µM
O=C(Cc1csc2nc(-c3ccc(Br)cc3)cn12)NN=C1CCCCC1 [Compound 4b, 6-(4-Bromophenyl)-N^2-(cyclohexylidene)imidazo[2,1-b]thiazole-3-acetohydrazide]				20 µg/mL	>100 µg/mL									Cytotoxicity CC50 (CRFK feline kidney cells): >100 µg/mL; Antiviral EC50 ACV^r-HSV-1 (ACV^r-HSV-1): >100 µg/mL; Antiviral EC50 Reovirus-1 (Reovirus-1): >100 µg/mL; H37Rv Finding MIC [2]: >100 µg/mL; IC50 [2]: > 100 µg/mL; H37Rv Finding Activity [2]: Inactive; Antiviral EC50 Vaccinia virus (Vaccinia virus): >100 µg/mL; Antiviral EC50 Parainfluenza-3 virus (Parainfluenza-3 virus): >100 µg/mL; Antiviral EC50 Sindbis virus (Sindbis virus): >100 µg/mL; Antiviral EC50 Punto Toro virus (Punto Toro virus): >100 µg/mL; Antiviral EC50 HSV-2 (HSV-2): >100 µg/mL; Antiviral EC50 Vesicular stomatitis virus [3]: >100 µg/mL; Antiviral EC50 HSV-1 (HSV-1): >100 µg/mL; Antiviral EC50 Coxsackie B4 virus (Coxsackie B4 virus; VERO cells): >100 µg/mL
O=C(Cc1csc2nc(-c3ccc(Br)cc3)cn12)NN=C1CCC(c2ccc(O)cc2)CC1 (centres unmarked) [Compound 4d, 6-(4-Bromophenyl)–N^2-(4-hydroxyphenylcyclohexylidene)imidazo[2,1-b]thiazole-3-acetohydrazide]				>100 µg/mL	>100 µg/mL									Cytotoxicity CC50 (CRFK feline kidney cells): 68 µg/mL; antiviral EC50 values, anti-DNA virus activity (DNA virus): about 45 µg/mL; Antiviral EC50 ACV^r-HSV-1 (ACV^r-HSV-1): 45 µg/mL; Antiviral EC50 Reovirus-1 (Reovirus-1): >100 µg/mL; Antiviral EC50 Vaccinia virus (Vaccinia virus): 45 µg/mL; Antiviral EC50 Parainfluenza-3 virus (Parainfluenza-3 virus): >100 µg/mL; Antiviral EC50 Sindbis virus (Sindbis virus): >100 µg/mL; Antiviral EC50 Punto Toro virus (Punto Toro virus): >100 µg/mL; Antiviral EC50 HSV-2 (HSV-2): 45 µg/mL; Antiviral EC50 Vesicular stomatitis virus [3]: >100 µg/mL; Antiviral EC50 HSV-1 (HSV-1): 45 µg/mL; Antiviral EC50 Coxsackie B4 virus (Coxsackie B4 virus; VERO cells): >100 µg/mL
O=C(Cc1csc2nc(-c3ccc(Br)cc3)cn12)NN1C(=O)CSC12CCCC2 [Compound 5a, 2-[6-(4-Bromophenyl)imidazo[2,1-b]thiazole-3-yl]-N-(3-oxo-1-thia-4-azaspiro[4.4]non-4-yl)acetamide]	> 100 µg/mL	> 100 µg/mL	> 100 µg/mL	100 µg/mL	≥20 µg/mL	> 100 µg/mL	> 100 µg/mL	> 100 µg/mL	> 100 µg/mL	> 100 µg/mL	> 100 µg/mL	> 100 µg/mL	> 100 µg/mL	H37Rv Finding MIC [2]: 8.453 µg/mL; H37Rv Finding Activity [2]: Active
O=C(Cc1csc2nc(-c3ccc(Br)cc3)cn12)NN1C(=O)CSC12CCCCC2 [Compound 5b, 2-[6-(4-Bromophenyl)imidazo[2,1-b]thiazole-3-yl]-N-(3-oxo-1-thia-4-azaspiro[4.5]dec-4-yl)acetamide]	> 100 µg/mL	> 100 µg/mL	> 100 µg/mL	>100 µg/mL	>100 µg/mL	> 100 µg/mL	> 100 µg/mL	> 100 µg/mL	> 100 µg/mL	> 100 µg/mL	> 100 µg/mL	> 100 µg/mL	> 100 µg/mL	H37Rv Finding MIC [2]: 1.566 µg/mL; H37Rv Finding Activity [2]: Active
O=C(Cc1csc2nc(-c3ccc(Br)cc3)cn12)NN1C(=O)CSC12CCC(c1ccccc1)CC2 (centres unmarked) [Compound 5c, 2-[6-(4-Bromophenyl)imidazo[2,1-b]thiazole-3-yl]-N-(3-oxo-8-phenyl-1-thia-4-azaspiro[4.5]dec-4-yl)acetamide]	> 100 µg/mL	> 100 µg/mL	> 100 µg/mL	20 µg/mL	20 µg/mL	> 100 µg/mL	> 100 µg/mL	> 100 µg/mL	> 100 µg/mL	> 100 µg/mL	> 100 µg/mL	> 100 µg/mL	> 100 µg/mL	H37Rv Finding Activity [2]: Active; MIC ([4]; read-out: H37Rv Finding MIC): 0.854 µg/mL (≈ 1.47 µM); IC50 ([4]; read-out: H37Rv Finding lC50): 0.76 µg/mL (≈ 1.31 µM)
CC1SC2(CCCC2)N(NC(=O)Cc2csc3nc(-c4ccc(Br)cc4)cn23)C1=O (centres unmarked) [Compound 6a, 2-[6-(4-Bromophenyl)imidazo[2,1-b]thiazole-3-yl]-N-(2-methyl-3-oxo-1-thia-4-azaspiro[4.4]non-4-yl)acetamide]	> 100 µg/mL	> 100 µg/mL	> 100 µg/mL	≥20 µg/mL	100 µg/mL	> 100 µg/mL	> 100 µg/mL	> 100 µg/mL	> 100 µg/mL	> 100 µg/mL	> 100 µg/mL	> 100 µg/mL	> 100 µg/mL	
CC1SC2(CCCCC2)N(NC(=O)Cc2csc3nc(-c4ccc(Br)cc4)cn23)C1=O (centres unmarked) [Compound 6b, 2-[6-(4-Bromophenyl)imizado[2,1-b]thiazole-3-yl]-N-(2-methyl-3-oxo-1-thia-4-azaspiro[4], [5]dec-4-yl)acetamide]				20 µg/mL	100 µg/mL									Cytotoxicity CC50 (CRFK feline kidney cells): 9.2 µg/mL; Antiviral EC50 ACV^r-HSV-1 (ACV^r-HSV-1): >100 µg/mL; Antiviral EC50 Reovirus-1 (Reovirus-1): >100 µg/mL; Antiviral EC50 Vaccinia virus (Vaccinia virus): >100 µg/mL; Antiviral EC50 Parainfluenza-3 virus (Parainfluenza-3 virus): >100 µg/mL; Antiviral EC50 Sindbis virus (Sindbis virus): >100 µg/mL; Antiviral EC50 Punto Toro virus (Punto Toro virus): >100 µg/mL; Antiviral EC50 HSV-2 (HSV-2): >100 µg/mL; Antiviral EC50 Vesicular stomatitis virus [3]: >100 µg/mL; Antiviral EC50 HSV-1 (HSV-1): >100 µg/mL; Antiviral EC50 Coxsackie B4 virus (Coxsackie B4 virus; VERO cells): >100 µg/mL
CC1SC2(CCC(c3ccccc3)CC2)N(NC(=O)Cc2csc3nc(-c4ccc(Br)cc4)cn23)C1=O (centres unmarked) [Compound 6c, 2-[6-(4-Bromophenyl)imidazo[2,1-b]thiazole-3-yl]-N-(2-methyl-8-phenyl-3-oxo-1-thia-4-azaspiro[4.5]dec-4-yl)acetamide]	> 100 µg/mL	> 100 µg/mL	> 100 µg/mL	20 µg/mL	20 µg/mL	> 100 µg/mL	> 100 µg/mL	> 100 µg/mL	> 100 µg/mL	> 100 µg/mL	> 100 µg/mL	> 100 µg/mL	> 100 µg/mL	
CC1SC2(CCC(c3ccc(O)cc3)CC2)N(NC(=O)Cc2csc3nc(-c4ccc(Br)cc4)cn23)C1=O (centres unmarked) [Compound 6d, 2-[6-(4-Bromophenyl)imidazo[2,1-b]thiazole-3-yl]-N-(2-methyl-8-(4-hydroxyphenyl)-3-oxo-1-thia-4-azaspiro[4.5]dec-4-yl)acetamide]	> 100 µg/mL	> 100 µg/mL	> 100 µg/mL	≥20 µg/mL	≥20 µg/mL	> 100 µg/mL	> 100 µg/mL	> 100 µg/mL	> 100 µg/mL	> 100 µg/mL	> 100 µg/mL	10 µg/mL	> 100 µg/mL	selectivity index (Coxsackie B4 virus; Coxsackie B4 virus, VERO cells): ≥ 2
Nc1nc(O)c2ncn(COC(CO)CO)c2n1 [Ganciclovir, reference compound]	60 µM	> 100 µM	0.03 µM							1.9 µM	0.025 µM		> 100 µM	Cytotoxicity MCC ([1]; reference in µM): >100 µM
NC(=O)c1ncn([C@@H]2O[C@H](CO)[C@@H](O)[C@H]2O)n1 [Ribavirin, reference compound]						> 250 µM	50 µM	> 250 µM	38 µM			> 250 µM		Cytotoxicity MCC (VERO cells; reference in µM): >250 µM
dextran sulphate MW 5,000 [DS-5,000, reference compound]					>100 µg/mL									Antiviral EC50 Reovirus-1 (Reovirus-1): ≥100 µg/mL; Antiviral EC50 Parainfluenza-3 virus (Parainfluenza-3 virus): >100 µg/mL
Urtica dioica agglutinin (protein, UniProt P11218 24-372, looked up) Lectin/endochitinase 1: QRCGSQGGGGTCPALWCCSIWGWCGDSEPYCGRTCENKCWSGERSDHRCGAAVGNPPCGQDRCCSVHGWCGGGNDYCSGSKCQYRCSSSVRGPRVALSGNSTANSIGNVVVTEPLFDQMFSHRKDCPSQGFYSYHSFLVAAESFPAFGTIGDVATRKREVAAFLAHISQATSGERSDVENPHAWGLCHINTTTVTENDFCTSSDWPCAAGKKYSPRGPIQLTHNFNYGLAGQAIGEDLIQNPDLVEKDPIISFKTALWFWMSQHDNKPSCHDIVLNANSAANRIPNKGVIGNIISRAFGHDDFAVRSSSIGFYKRYCDMLGVSYGHDLKYWFDNTPSSEFQRIQMRVAA														Cytotoxicity CC50 (CRFK feline kidney cells): 29 µg/mL
